Test results reported in article PMC11984877, “Carnosic Acid Directly Targets STING C‐Terminal Tail to Improve STING‐Mediated Inflammatory Diseases” (Advanced Science, 2025).

Assays:
[1] = biological target: T1, STING (stimulator of interferon genes) (Homo sapiens, UniProt Q86WV6); experiment: SPR (Biacore T200); also MST (KD […]) and CA-sepharose pull-down competed by free CA; type: binding; parameters: gene STING1; purified soluble human STING protein (TP308418, OriGene)
[2] = biological target: T1, STING (stimulator of interferon genes); experiment: SPR (Biacore T200); also carnosol-sepharose pull-down; type: binding; parameters: gene STING1; purified human STING protein (TP308418, OriGene)

T1 sequence (Q86WV6 whole entry): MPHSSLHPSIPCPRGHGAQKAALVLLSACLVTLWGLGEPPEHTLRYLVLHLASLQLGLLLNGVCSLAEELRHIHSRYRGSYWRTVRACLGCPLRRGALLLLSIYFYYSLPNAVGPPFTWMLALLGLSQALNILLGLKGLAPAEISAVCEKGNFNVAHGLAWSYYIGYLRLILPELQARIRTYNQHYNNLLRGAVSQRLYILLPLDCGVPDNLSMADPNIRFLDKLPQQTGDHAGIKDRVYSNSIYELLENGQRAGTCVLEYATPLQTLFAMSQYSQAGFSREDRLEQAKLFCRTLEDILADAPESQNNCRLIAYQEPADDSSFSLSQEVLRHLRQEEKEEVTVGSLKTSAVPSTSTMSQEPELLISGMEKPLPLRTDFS

Row | Kd [2] [nM] | Structure (SMILES) | Kd [1] [nM]
1 |  | CC(C)c1cc2c(c(O)c1O)[C@@]1(C(=O)O)CCCC(C)(C)[C@@H]1CC2 [CA, carnosic acid] | 3170
2 | 1070 | CC(C)c1cc2c(c(O)c1O)[C@@]13CCCC(C)(C)[C@@H]1C[C@@H]2OC3=O [carnosol] | 
